Measured values: patent publication US20080187984A1, “Myo-inositol oxygenases” (Cargill, Incorporated, priority 2001, published 2008)

What was measured:
[1] = target: T1, ycbD product (aldehyde dehydrogenase) (Bacillus subtilis, UniProt P42236); assay: Dehydrogenase activity of cell extracts, absorbance at 340 nm; format: biochemical; conditions: 200 mM substrate, 0.05 mL cell extract (0.25 mg protein); for Relative Activity NAD: 1 mM NAD; for Relative Activity NADP: 1 mM NADP
T1 construct: made in house; host or cells: E. coli BLR(DE3), [ycbD+ycbE]-pET30a, desalted cell extract
T1 sequence (P42236 whole entry): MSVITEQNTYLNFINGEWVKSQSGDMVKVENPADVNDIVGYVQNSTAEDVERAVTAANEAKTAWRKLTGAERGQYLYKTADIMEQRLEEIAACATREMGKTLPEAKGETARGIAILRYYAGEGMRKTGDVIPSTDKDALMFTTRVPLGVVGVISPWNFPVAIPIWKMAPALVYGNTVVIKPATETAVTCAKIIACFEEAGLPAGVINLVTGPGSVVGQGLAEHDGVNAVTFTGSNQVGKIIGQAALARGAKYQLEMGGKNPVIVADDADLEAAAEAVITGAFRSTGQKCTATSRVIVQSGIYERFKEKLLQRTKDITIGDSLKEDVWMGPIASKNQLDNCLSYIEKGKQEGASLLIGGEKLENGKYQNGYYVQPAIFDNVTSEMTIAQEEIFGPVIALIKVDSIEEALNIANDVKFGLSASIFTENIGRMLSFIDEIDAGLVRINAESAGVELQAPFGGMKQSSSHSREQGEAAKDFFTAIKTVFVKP
Method: The dehydrogenase activity of the cell extracts was followed using acetaldehyde, glucuronic acid, and glucurono-3,6-lactone as substrates in 96-well plates. Each assay mixture contained 100 mM potassium phosphate, pH 7.8, 1 mM NADP or NAD, 200 mM substrate, and between 0.02 and 0.1 mL cell extract (0.1 to 0.5 mg protein). The reactions were started by adding the enzyme and were incubated at 30° C. in the spectrophotometer. The dehydrogenase activity was followed by monitoring the linear change in absorbance at 340 nm over a 10 minute time period (referenced to a reaction mixture without substrate).

[2] = system: serum cholesterol; conditions: mammals; cited from earlier work
[3] = system: beta-glucuronidase; conditions: cited from earlier work
[4] = target: T2, glucuronate reductase (Rattus norvegicus, UniProt P51635, T2A); assay: GLR assay, loss of absorbance at 340 nm (loss of NADPH); format: biochemical
T2 construct: His tag (pET30a fusion); made in house; host or cells: E. coli BLR(DE3), pET30a
T2 sequence (P51635 1-325 T2A): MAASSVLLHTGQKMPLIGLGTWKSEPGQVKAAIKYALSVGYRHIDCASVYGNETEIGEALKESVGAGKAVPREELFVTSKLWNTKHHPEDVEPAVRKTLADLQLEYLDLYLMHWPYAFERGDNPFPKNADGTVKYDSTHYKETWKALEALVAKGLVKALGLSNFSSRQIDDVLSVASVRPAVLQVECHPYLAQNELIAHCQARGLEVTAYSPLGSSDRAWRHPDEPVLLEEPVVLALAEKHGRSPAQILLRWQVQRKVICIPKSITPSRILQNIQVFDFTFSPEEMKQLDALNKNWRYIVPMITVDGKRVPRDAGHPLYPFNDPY
Method: GLR was assayed by following the loss of absorbance at 340 nm (loss of NADPH) using 0.3 mM NADPH, 10 mM glucuronic acid, and variable amount of enzyme in 100 mM sodium phosphate, pH 6.6 (Hayashi et al., J. Biochem., 95:2223-2232 (1984)). 1-2 micromoles of NADPH were typically consumed per minute per mg protein.

[5] = target: T3, myo-inositol oxygenase (MIO) (Homo sapiens, UniProt Q9UGB7); assay: MIO-orcinol assay of recombinant human MIO; format: biochemical
T3 construct: made in house; host or cells: Hi5 / Sf-9 insect cells (baculovirus, pFastBacHTa); also E. coli DH10B (pTRC99A) and S. cerevisiae INVSc1 (pYES2)
T3 sequence (Q9UGB7 with tags, fused parts or gaps): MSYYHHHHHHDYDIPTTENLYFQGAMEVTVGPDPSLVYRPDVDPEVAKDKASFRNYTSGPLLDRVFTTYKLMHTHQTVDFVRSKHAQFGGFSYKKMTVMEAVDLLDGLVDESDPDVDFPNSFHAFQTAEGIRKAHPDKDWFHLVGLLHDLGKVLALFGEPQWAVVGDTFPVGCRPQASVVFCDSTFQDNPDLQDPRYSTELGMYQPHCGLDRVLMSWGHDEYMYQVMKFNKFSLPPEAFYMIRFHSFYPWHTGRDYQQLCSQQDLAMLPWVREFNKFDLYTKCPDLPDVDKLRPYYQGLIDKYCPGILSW
Method: MIO activity was determined using a modification of the method described by Reddy et al. (J. Biol. Chem., 256, 8510 (1981)). Briefly, this assay is based on the reaction of orcinol (5-methyl-1,3-benzenediol) with the MIO enzyme reaction product, D-glucuronic acid. The standard assay mixture contained 50 mM Tris-HCl (pH 8.0), 2.0 mM cysteine, 1.0 mM ferrous ammonium sulfate, 60 mM myo-inositol, and appropriate quantities of enzyme in a total volume of 0.50 mL. The stock L-cysteine solution (0.10 M) was prepared every two weeks, and the stock ferrous ammonium sulfate solution (0.50 M) was prepared fresh daily. The enzyme solutions consisted of cell extracts prepared as described or chromatography fractions generated during the partial purification of the enzyme. Prior to initiating the reaction by addition of the substrate myo-inositol (stock solution of 0.50 M, dissolved in 50 mM TEGG), all other reagents were mixed together by vortexing and incubated for 5 minutes at 30° C. The substrate was then added to initiate the assay. After vortex-mixing the components, the reaction was carried out in an air atmosphere at 30° C. with shaking at 200 rpm for 10 minutes. The reaction was terminated by the addition of 75 μL of 20% trichloroacetic acid. After vortexing, the assay mixture was transferred to a 1.5 mL polypropylene microcentrifuge tube, and the precipitated polypeptide was separated by centrifugation at 21,000×g for 3 minutes at 25° C. The supernatant was transferred to a new 1.5 mL polypropylene microcentrifuge tube, and the D-glucuronic acid concentration was determined by the orcinol colorimetric assay.
The orcinol colorimetric determination assay was performed as follows. Freshly prepared orcinol reagent (0.6 mL; 0.4% (w/v) orcinol, 0.09% (w/v) ferric trichloride hexahydrate in concentrated HCl) was added to 0.3 mL of the clear supernatant. The mixture was vortex-mixed and then incubated in a boiling water bath for 30 minutes. After cooling to 25° C., the mixture was cleared by centrifugation at 21,000×g for 3 minutes. The supernatant was transferred to a disposable cuvette, and the absorbance was measured at 660 nm. A standard curve was generated by replacing the enzyme fraction with D-glucuronic acid (0 to 40 μg/mL) and carrying out the assay as described above. […]
All reactions were run in duplicate, and all polypeptide fractions were assayed with and without added myo-inositol substrate (an equal volume of TEGG buffer with or without substrate was added to initiate the assay). The average of the absorbance readings of the assay mixtures carried out without substrate was subtracted from the average of readings of the assay mixtures containing substrate. […]

## CC=O [acetaldehyde]
[1]
  Relative Activity NAD: 56.9 percentage of maximum activity
  Relative Activity NADP: 100.0 percentage of maximum activity

## O=C[C@H](O)[C@@H](O)[C@H](O)[C@H](O)C(=O)O [D-glucuronate]
[1]
  Relative Activity NAD: 2.4 percentage of maximum activity
  Relative Activity NADP: 2.1 percentage of maximum activity

## O=C[C@H](O)[C@H]1OC(=O)[C@@H](O)[C@H]1O [D-glucurono-3,6-lactone]
[1]
  Relative Activity NAD: 2.1 percentage of maximum activity
  Relative Activity NADP: 50.6 percentage of maximum activity

## O=C(O)[C@@H](O)[C@@H](O)[C@H](O)[C@@H](O)C(=O)O [Glucaric acid]
[2]
  effect on serum cholesterol: lower serum cholesterol
[3]
  inhibition of beta-glucuronidase: potent inhibitor

B1: GLR: glucuronate reductase, rat glr expressed from pET30a in E. coli, His-Bind purified (protein, UniProt P51635 2-325, looked up)
Aldo-keto reductase family 1 …: TASSVLLHTGQKMPLIGLGTWKSEPGQVKAAIKYALSVGYRHIDCASVYGNETEIGEALKESVGAGKAVPREELFVTSKLWNTKHHPEDVEPAVRKTLADLQLEYLDLYLMHWPYAFERGDNPFPKNADGTVKYDSTHYKETWKALEALVAKGLVKALGLSNFSSRQIDDVLSVASVRPAVLQVECHPYLAQNELIAHCQARGLEVTAYSPLGSSDRAWRHPDEPVLLEEPVVLALAEKHGRSPAQILLRWQVQRKVICIPKSITPSRILQNIQVFDFTFSPEEMKQLDALNKNWRYIVPMITVDGKRVPRDAGHPLYPFNDPY
modifications: His tag
[4]; 0.3 mM NADPH, 10 mM glucuronic acid, pH 6.6
  NADPH consumed: 1-2 micromoles per minute per mg p
[4]; His-Bind purified from E. coli
  Specific Activity (purified protein): 1 to 3 µmol/min/mg

B2: purified polypeptide: His-tagged human MIO polypeptide, SEQ ID NO:12, expressed by baculovirus in insect cells (protein)
chain: T3 sequence (Q9UGB7 with tags, fused parts or gaps)
modifications: His tag; human polypeptide with non-human sequences
[5]; Hi5 insect cells, baculovirus expression, FIG. 8
  MIO activity: exhibited MIO activity
[5]; Nickel-NTA purified to homogeneity, from insect cells
  specific activity: 225 μg glucuronic acid formed per mg polypeptide during a 10 minute assay

B3: human MIO polypeptide: Human myo-inositol oxygenase (ORF EMBL: CAB63064.1) expressed in E. coli or S. cerevisiae, assayed in cell extracts (protein, UniProt Q9UGB7 1-285, looked up)
Inositol oxygenase: MKVTVGPDPSLVYRPDVDPEVAKDKASFRNYTSGPLLDRVFTTYKLMHTHQTVDFVRSKHAQFGGFSYKKMTVMEAVDLLDGLVDESDPDVDFPNSFHAFQTAEGIRKAHPDKDWFHLVGLLHDLGKVLALFGEPQWAVVGDTFPVGCRPQASVVFCDSTFQDNPDLQDPRYSTELGMYQPHCGLDRVLMSWGHDEYMYQVMKFNKFSLPPEAFYMIRFHSFYPWHTGRDYQQLCSQQDLAMLPWVREFNKFDLYTKCPDLPDVDKLRPYYQGLIDKYCPGILSW
[5]; E. coli, pTRC99A, IPTG induced, desalted cell extract
  specific activity: 8.8 μg glucuronic acid formed per mg polypeptide in 10 minutes
[5]; S. cerevisiae INVSc1, pYES2, cell extract, 12 hours after induction
  specific activity: 13.4 μg glucuronic acid formed per mg polypeptide in 10 minutes
